Data published in paper PMC9269349, “Characterization of Four New Compounds from Protea cynaroides Leaves and Their Tyrosinase Inhibitory Potential” (Plants, 2022).

Biological target: mushroom tyrosinase (Agaricus bisporus, UniProt C7FF04)
Assay: Antityrosinase inhibition assay (L-tyrosine substrate, absorbance at 490 nm)
Type: biochemical
Settings: against L-tyrosine substrate
Experimental: The skin enzymatic inhibitory assay was executed during the study following the approach used by Curto et al. and Nerya et al.. Extracts and isolates were dissolved in dimethyl sulfoxide (DMSO) to a final concentration of 20 mg/mL. […] After incubation at room temperature for 5 min, 110 μL of the substrate (2 mM L-tyrosine) was added to each well. […] Incubation commenced for 30 min at room temperature by measuring the absorbance at 490 nm with the […]1.11).

Sequence of mushroom tyrosinase (G1K3P4 entry or part of it): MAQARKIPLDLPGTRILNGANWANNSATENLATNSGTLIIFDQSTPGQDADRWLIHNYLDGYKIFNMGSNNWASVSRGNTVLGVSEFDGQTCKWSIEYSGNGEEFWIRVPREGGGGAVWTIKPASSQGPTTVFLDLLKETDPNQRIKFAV
Sequence of mushroom tyrosinase (C7FF04 1-392): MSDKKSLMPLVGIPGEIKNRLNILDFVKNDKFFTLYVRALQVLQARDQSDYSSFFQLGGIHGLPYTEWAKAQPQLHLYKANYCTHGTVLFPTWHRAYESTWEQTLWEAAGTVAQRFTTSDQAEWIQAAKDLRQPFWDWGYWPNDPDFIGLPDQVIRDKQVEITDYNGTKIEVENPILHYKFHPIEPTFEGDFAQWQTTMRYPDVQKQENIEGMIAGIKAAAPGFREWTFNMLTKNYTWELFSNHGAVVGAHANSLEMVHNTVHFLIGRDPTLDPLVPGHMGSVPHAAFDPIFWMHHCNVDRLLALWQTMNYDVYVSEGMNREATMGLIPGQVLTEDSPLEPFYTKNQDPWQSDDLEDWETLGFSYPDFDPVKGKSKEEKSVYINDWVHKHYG

| SMILES | tyrosinase inhibitory activity (in words) |
| --- | --- |
| OC[C@H]1OC[C@H](O)[C@@H](O)[C@@H]1O [Compound 5, 1,5-anhydro-D-glucitol] | weak activity |
| O=C(O)c1ccc(O)cc1 [Compound 6, 4-hydroxybenzoic acid] | weak activity |
| O=C(O)c1ccc(O)c(O)c1 [Compound 7, 3,4-dihydroxybenzoic acid] | potent competitive tyrosinase inhibition |

Next, values leading:

| tyrosinase inhibitory activity (in words) | SMILES |
| --- | --- |
| potent competitive tyrosinase inhibition | O=c1c(O)coc(CO)c1O [Compound 8, 3-hydroxykojic acid] |
| low inhibitory activity | O=C(OCC1OC(Oc2c(CO)occc2=O)C(O)C(O)C1O)c1ccc(O)cc1 (centres unmarked) [Compound 3] |
